The results in this text go back to ChEMBL document CHEMBL5724914, “Linking interpersonal differences in gut microbiota composition and drug biotransformation activity” (2024).

SMILES strings stand for the structures.

Data set [1] is described as follows: The drug is tested on Z-028 corresponding to mouse gut metagenome with ENA study accession number: PRJEB37062 and ENA sample accession number: ERS12561827 for biotransformation under anaerobic condition. The drug concentrations were measured over 9 timepoints collected between 0 and 24 hours of incubation by liquid-chromatography-coupled mass spectrometry (LC–MS). Particulars: 2 µM.

For data set [2] the following is noted: human gut metagenome, 24 h, 2 µM.
For data set [3] the following is noted: human gut metagenome, 24 h, 2 µM. This is another data set of the same source.
The conditions of data set [4]: human gut metagenome, 24 h, 2 µM. The source holds these as a separate data set.
For data set [5] the following is noted: human gut metagenome, 24 h, 2 µM. This is another data set of the same source.
The conditions of data set [6]: human gut metagenome, 24 h, 2 µM. This is another data set of the same source.
For data set [7] the following is noted: human gut metagenome, 24 h, 2 µM. The source holds these as a separate data set.
Data set [8] can be described thus: The drug is tested on Z-012 corresponding to metagenome with ENA study accession number: PRJEB37062 and ENA sample accession number: ERS12561812 for biotransformation under anaerobic condition. The drug concentrations were measured over 9 timepoints collected between 0 and 24 hours of incubation by liquid-chromatography-coupled mass spectrometry (LC–MS). Particulars: 2 µM.

A short description of data set [9]: The drug is tested on Z-006 corresponding to mouse gut metagenome with ENA study accession number: PRJEB37062 and ENA sample accession number: ERS12561806 for biotransformation under anaerobic condition. The drug concentrations were measured over 9 timepoints collected between 0 and 24 hours of incubation by liquid-chromatography-coupled mass spectrometry (LC–MS). Particulars: 2 µM.

A short description of data set [10]: The drug is tested on Z-003 corresponding to pig gut metagenome with ENA study accession number: PRJEB37062 and ENA sample accession number: ERS12561803 for biotransformation under anaerobic condition. The drug concentrations were measured over 9 timepoints collected between 0 and 24 hours of incubation by liquid-chromatography-coupled mass spectrometry (LC–MS). Particulars: 2 µM.

For data set [11] the following is noted: human gut metagenome, 24 h, 2 µM. This is another data set of the same source.
The nature of data set [12]: The drug is tested on Z-017 corresponding to mouse gut metagenome with ENA study accession number: PRJEB37062 and ENA sample accession number: ERS12561816 for biotransformation under anaerobic condition. The drug concentrations were measured over 9 timepoints collected between 0 and 24 hours of incubation by liquid-chromatography-coupled mass spectrometry (LC–MS). Particulars: 2 µM.

The nature of data set [13]: The drug is tested on WLS-240 corresponding to human gut metagenome with ENA study accession number: PRJEB37062 and ENA sample accession number: ERS12561773 for biotransformation under anaerobic condition. The drug concentrations were measured over 9 timepoints collected between 0 and 24 hours of incubation by liquid-chromatography-coupled mass spectrometry (LC–MS). Particulars: 2 µM.

For data set [14] the following is noted: human gut metagenome, 24 h, 2 µM. This is another data set of the same source.
The conditions of data set [15]: human gut metagenome, 24 h, 2 µM. The source holds these as a separate data set.
Data set [16] is described as follows: The drug is tested on Z-026 corresponding to metagenome with ENA study accession number: PRJEB37062 and ENA sample accession number: ERS12561825 for biotransformation under anaerobic condition. The drug concentrations were measured over 9 timepoints collected between 0 and 24 hours of incubation by liquid-chromatography-coupled mass spectrometry (LC–MS). Particulars: 2 µM.

For data set [17] the following is noted: human gut metagenome, 24 h, 2 µM. The source holds these as a separate data set.
Data set [18] is described as follows: The drug is tested on WLS-310 corresponding to human gut metagenome with ENA study accession number: PRJEB37062 and ENA sample accession number: ERS12561785 for biotransformation under anaerobic condition. The drug concentrations were measured over 9 timepoints collected between 0 and 24 hours of incubation by liquid-chromatography-coupled mass spectrometry (LC–MS). Particulars: 2 µM.

For data set [19] the following is noted: human gut metagenome, 24 h, 2 µM. This is another data set of the same source.
For data set [20] the following is noted: human gut metagenome, 24 h, 2 µM. The source holds these as a separate data set.
Also: call rule not given here.

On to `CNC(=C[N+](=O)[O-])NCCSCc1ccc(CN(C)C)o1` [RANITIDINE], for which the “Bacterial Biotransformation” value in data set [1] is reported as “Compound metabolized”; in [2], “Compound metabolized”; in data set [3], “Compound metabolized”; in [4] it was “Compound NOT metabolized”; in [5] it was “Compound metabolized”; in [6] it was “Compound NOT metabolized”. Further, the “Bacterial Biotransformation” value is on record as “Compound metabolized” in data set [7]; “Compound metabolized” in [8]; “Compound metabolized” in data set [9]; “Compound metabolized” in data set [10]; “Compound NOT metabolized” in data set [11]; “Compound metabolized” in data set [12]. For the same molecule, the “Bacterial Biotransformation” value is recorded as “Compound NOT metabolized” in [13]; “Compound NOT metabolized” in [14]; “Compound NOT metabolized” in [15]; “Compound metabolized” in data set [16]; “Compound metabolized” in data set [17]; “Compound metabolized” in data set [18]. Further, the “Bacterial Biotransformation” value in data set [19] and in data set [20] was “Compound NOT metabolized” each time.
Take `Nc1nc2ccc(OC(F)(F)F)cc2s1` [RILUZOLE]: the “Bacterial Biotransformation” value in [1] is listed as “Compound NOT metabolized”; in data set [2], “Compound metabolized”; in [3], “Compound metabolized”; in [4], “Compound NOT metabolized”; in data set [5], “Compound metabolized”; in data set [6] it was “Compound metabolized”. The “Bacterial Biotransformation” value in data set [7] is “Compound metabolized”; in data set [8], “Compound metabolized”; in [9], “Compound NOT metabolized”; in [10], “Compound metabolized”; in data set [11], “Compound metabolized”; in data set [12], “Compound NOT metabolized”. Further, the “Bacterial Biotransformation” value was “Compound metabolized” in data set [13]; “Compound NOT metabolized” in [14]; “Compound metabolized” in data set [15]; “Compound metabolized” in data set [16]; “Compound metabolized” in data set [17]; “Compound metabolized” in data set [18]. The “Bacterial Biotransformation” value in data set [19] is “Compound metabolized”; in data set [20] it was “Compound NOT metabolized”.
`CC(C)c1nc(CN(C)C(=O)N[C@H](C(=O)N[C@@H](Cc2ccccc2)C[C@H](O)[C@H](Cc2ccccc2)NC(=O)OCc2cncs2)C(C)C)cs1` [RITONAVIR]: the “Bacterial Biotransformation” value in data set [1] is given as “Compound metabolized”; in [2], “Compound metabolized”; in [3] it was “Compound metabolized”; in data set [4] it was “Compound NOT metabolized”; in [5] it was “Compound metabolized”; in data set [6], “Compound metabolized”. Further, the “Bacterial Biotransformation” value is “Compound metabolized” in data set [7]; “Compound metabolized” in data set [8]; “Compound metabolized” in [9]; “Compound metabolized” in data set [10]; “Compound metabolized” in [11]; “Compound NOT metabolized” in data set [12]. The “Bacterial Biotransformation” value is recorded as “Compound metabolized” in data set [13]; “Compound NOT metabolized” in [14]; “Compound metabolized” in data set [15]; “Compound metabolized” in [16]; “Compound metabolized” in data set [17]; “Compound metabolized” in data set [18]. Besides, the “Bacterial Biotransformation” value is “Compound metabolized” in [19] and “Compound NOT metabolized” in data set [20].
`CC(C)NCC(O)c1ccc(NS(C)(=O)=O)cc1` (stereo not given) [SOTALOL]: the “Bacterial Biotransformation” value in data set [1], in [2], in data set [3], in data set [4], in data set [5] and in [6] was “Compound NOT metabolized” throughout. In addition, the “Bacterial Biotransformation” value in [7], in data set [8], in data set [9], in data set [10], in [11] and in data set [12] was “Compound NOT metabolized” in each case. Besides, the “Bacterial Biotransformation” value in data set [13], in data set [14], in data set [15], in data set [16], in data set [17] and in data set [18] was “Compound NOT metabolized” throughout. The “Bacterial Biotransformation” value in [19] and in data set [20] was “Compound NOT metabolized” each time.
Turning to `CCN1CCCC1CNC(=O)c1cc(S(N)(=O)=O)ccc1OC` (stereo not given) [SULPIRIDE], the “Bacterial Biotransformation” value was “Compound NOT metabolized” in [1]; “Compound NOT metabolized” in data set [2]; “Compound NOT metabolized” in data set [3]; “Compound NOT metabolized” in [4]; “Compound NOT metabolized” in [5]; “Compound metabolized” in [6]. For the same molecule, the “Bacterial Biotransformation” value in data set [7] was “Compound metabolized”; in [8], “Compound NOT metabolized”; in [9], “Compound NOT metabolized”; in [10], “Compound metabolized”; in data set [11] it was “Compound NOT metabolized”; in data set [12] it was “Compound NOT metabolized”. Besides, the “Bacterial Biotransformation” value was “Compound metabolized” in [13]; “Compound NOT metabolized” in data set [14]; “Compound metabolized” in data set [15]; “Compound NOT metabolized” in data set [16]; “Compound NOT metabolized” in [17]; “Compound metabolized” in data set [18]. For the same molecule, the “Bacterial Biotransformation” value in data set [19] and in data set [20] was “Compound NOT metabolized” in each case.
Take `CNS(=O)(=O)Cc1ccc2[nH]cc(CCN(C)C)c2c1.O=C(O)CCC(=O)O` [SUMATRIPTAN SUCCINATE]: the “Bacterial Biotransformation” value in data set [1], in [2], in data set [3], in data set [4], in data set [5] and in [6] was “Compound NOT metabolized” in each case. For the same molecule, the “Bacterial Biotransformation” value in [7] is “Compound metabolized”; in data set [8], “Compound NOT metabolized”; in data set [9] it was “Compound NOT metabolized”; in [10] it was “Compound metabolized”; in data set [11], “Compound NOT metabolized”; in data set [12] it was “Compound NOT metabolized”. Besides, the “Bacterial Biotransformation” value in data set [13] is listed as “Compound metabolized”; in data set [14], “Compound NOT metabolized”; in data set [15], “Compound metabolized”; in data set [16], “Compound NOT metabolized”; in [17], “Compound NOT metabolized”; in data set [18], “Compound NOT metabolized”. For the same molecule, the “Bacterial Biotransformation” value is “Compound metabolized” in data set [19] and “Compound NOT metabolized” in data set [20].
